Laboratory results from patent US10857137B2, “Methods for the administration of certain VMAT2 inhibitors” (Neurocrine Biosciences, Inc., priority 2017, dated 2020).
Entries after “also recorded” stand apart in the source; their conditions may differ.

Key:
[1] = system: dopamine, serotonin and adrenergic receptor subtypes; assay: Detailed radioligand binding assays, monoamine receptors; conditions: radioligand binding assays and broad panel screen
human VMAT1 transporter = biological target: T1, human VMAT1 transporter (Homo sapiens, UniProt P54219); assay: Uptake in cells expressing VMAT1; type: cell-based; conditions: test compounds at concentrations up to 10 μM
T1 construct: expressed in transfected cells
T1 sequence (P54219 1-525): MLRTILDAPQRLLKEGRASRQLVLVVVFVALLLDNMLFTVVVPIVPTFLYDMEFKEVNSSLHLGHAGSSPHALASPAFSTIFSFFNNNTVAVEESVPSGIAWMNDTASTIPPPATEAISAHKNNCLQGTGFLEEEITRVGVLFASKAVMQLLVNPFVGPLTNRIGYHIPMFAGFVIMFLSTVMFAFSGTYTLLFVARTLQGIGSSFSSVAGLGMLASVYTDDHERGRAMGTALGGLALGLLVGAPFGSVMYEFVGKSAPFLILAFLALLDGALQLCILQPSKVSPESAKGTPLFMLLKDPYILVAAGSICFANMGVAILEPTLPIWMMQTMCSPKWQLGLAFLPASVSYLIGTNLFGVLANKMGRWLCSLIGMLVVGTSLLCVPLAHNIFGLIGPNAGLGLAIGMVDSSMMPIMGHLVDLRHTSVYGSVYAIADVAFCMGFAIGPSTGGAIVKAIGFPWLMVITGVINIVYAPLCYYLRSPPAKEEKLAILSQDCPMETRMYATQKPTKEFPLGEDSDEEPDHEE

[2] = system: ptosis (adrenergic activation); assay: Ptosis, in vivo surrogate measure
[3] = system: prolactin release (D2 dopamine receptor); assay: Serum prolactin, in vivo surrogate measure
[4] = system: more than 80 targets including GPCRs, cell-surface monoamine transporters, and ion channels including HERG; assay: Multi-target activity screen (Cerep screen), whole panel; type: binding; conditions: receptors
[5] = Plasma concentrations of circulating metabolites of VBZ; type: in vivo; conditions: metabolites formed from VBZ
rat and human VMAT2 = assay: VMAT2 [3H]-DHTBZ binding, summary statements over rat and human tissues; conditions: rat striatum and human platelet homogenates
Method: The affinity of each compound was measured by inhibition of [^3H]-DHTBZ binding to rat forebrain membranes. […] The affinity of each compound was measured by inhibition of [^3H]-DHTBZ binding to either human platelets or rat striatal membranes.

For COc1cc2c(cc1OC)[C@@H]1C[C@H](O)[C@@H](CC(C)C)CN1CC2 [S,S,S-DHTBZ, reference compound], the “interaction with D1 and D2 receptors, in words” value [1] was “interact with D1 and D2 receptors”.

In the case of COC(=O)[C@H]1[C@H]2C[C@@H]3c4[nH]c5cc(OC)ccc5c4CCN3C[C@H]2C[C@@H](OC(=O)c2cc(OC)c(OC)c(OC)c2)[C@@H]1OC [reserpine, reference compound], the “inhibition of uptake through VMAT1, in words” value (human VMAT1 transporter) is reported as “substantially inhibited uptake through VMAT1”.

In the case of COc1cc2c(cc1OC)C1CC(=O)C(CC(C)C)CN1CC2 (stereo not shown) [TBZ, reference compound], the “induction of ptosis, in words” value [2] is reported as “induced ptosis in an equivalent manner”, the “increase in serum prolactin levels, in words” value (“increase” below) [3] is reported as “increase in serum prolactin levels” and the “inhibition of uptake through VMAT1, in words” value (human VMAT1 transporter) is reported as “no significant inhibitory activity; also recorded: no significant effect”.

In the case of COc1cc2c(cc1OC)[C@@H]1C[C@@H](O)[C@@H](CC(C)C)CN1CC2 [R,S,S-DHTBZ, reference compound], the “interaction with D1 and D2 receptors, in words” value [1] is reported as “interact with D1 and D2 receptors”.

With COc1cc2c(cc1OC)[C@H]1C[C@@H](OC(=O)[C@@H](N)C(C)C)[C@H](CC(C)C)CN1CC2 [Valbenazine, (S)-2-amino-3-methyl-butyric acid (2R,3R,11bR)-3-isobutyl-9,10-dimethoxy-1,3,4,6,7,11b-hexahydro-2H-pyrido[2,1-a]isoquinolin-2-yl ester] the “induction of ptosis, in words” value [2] was “induced ptosis in an equivalent manner”, the “affinity for more than 80 binding sites, in words” value (“affinity” below) [4] was “little to no affinity” and the “increase” value [3] was “to a lesser extent”. For the same compound, the “inhibition of uptake through VMAT1, in words” value (human VMAT1 transporter; listed as VBZ) was “no significant inhibitory activity; also recorded: no significant effect”.

For COc1cc2c(cc1OC)[C@H]1C[C@@H](O)[C@H](CC(C)C)CN1CC2 [R,R,R-DHTBZ, (2R,3R,11bR)-3-isobutyl-9,10-dimethoxy-1,3,4,6,7,11b-hexahydro-2H-pyrido[2,1-a]isoquinolin-2-ol], the “induction of ptosis, in words” value [2] was “induced ptosis in an equivalent manner”, the “affinity” value [4] was “little to no affinity” and the “decline of plasma concentrations (half-lives), in words” value [5] was “half-lives similar to VBZ”. The “VMAT2 inhibition, in words” value (rat and human VMAT2) was “most potent inhibitor of VMAT2”, the “increase” value [3] was “induced a similar increase in serum prolactin levels as TBZ” and the “inhibition of uptake through VMAT1, in words” value (human VMAT1 transporter) was “no significant inhibitory activity; also recorded: no significant effect”.

In the case of COc1cc2c(cc1OC)[C@H]1C[C@@H](OC(=O)[C@@H](N)C(C)(C)O)[C@H](CC(C)C)CN1CC2 [NBI-136110], the “affinity” value [4] is reported as “little to no affinity”, the “decline of plasma concentrations (half-lives), in words” value [5] is reported as “half-lives similar to VBZ” and the “inhibition of uptake through VMAT1, in words” value (human VMAT1 transporter) is reported as “no significant inhibitory activity; also recorded: no significant effect”.
